According to article PMC9496346, “Controversial Role of Transferrin in the Transport of Ruthenium Anticancer Drugs” (Biomolecules, 2022):
Marks after values point to notes of the source that are not given here.

Assays:
[1] = Particle size (protein aggregation) by dynamic light scattering; type: physicochemical; conditions: DLS, 298 K; 10 μM Tf in binding buffer pH 7.4
Procedure: Protein samples (0.10 mM) were diluted 10-fold with binding buffer before the measurements. The measured parameters were the averages of 12–15 scans (scan time, 3 s). […] Analysis of Tf crystal structures that are available in the public domain from the Protein Data Bank (PDB) was performed with PyMOL software (version 2.1.1, Schrodinger LLC 2021, New York, NY, USA).

[2] = system: T1, recombinant human transferrin receptor 1 (TfR1); assay: BLI of Tf–TfR1 binding in dilute cell culture media after uptake experiments; conditions: 1.0 µM human Tf, 295 K; serum-free DMEM with 1.0 mg mL−1 BSA collected after HepG2 uptake experiments, diluted 30-fold; 1:1 binding model
T1 construct: extracellular domain (Cyst89-Phe760), (His)6-tagged at the N-terminus; purchased Sino Biological, Beijing, China (TfR1)
Procedure: (§1) The effects of Ru complexes on the Tf cycle were determined by BLI using previously developed protocols. The instrument used was a single-channel BLItz analyser (ForteBio, Menlo Park, CA, USA) with a tube holder (250 µL solution volume) and Ni(II)–nta coated optical probes held at 295 ± 1 K. Measurements used the Advanced Kinetics mode. […] Solutions of metal–Tf adducts (typical final Tf concentrations 150 nM or 1.0 µM) were prepared in the binding buffer (Section 2.1). The pH 7.4 binding buffer was used for Tf binding and dissociation from the probe, and the pH 5.6 buffer (Section 2.1) was used to mimic the endosomal step of the Tf cycle. Metal–Tf solutions (A1–A9 in Table 1) were diluted 100–400-fold, cell culture media were diluted 30-fold, and human serum samples were diluted 200-fold with the binding buffer immediately before the BLI measurements. All BLI data were background corrected by using data from buffer only runs with the same TfR1-loaded optical probe. Consistent BLI results were obtained in at least two independent measurements, using different probes and different batches of Tf solutions. Calculations of the Tf–TfR1 binding constants were performed using the 1:1 binding model (BLItz software, Version 1.1, Forte-Bio 2013), which can be used as a reasonable approximation of the physiological 2:2 Tf–TfR1 binding mechanism at low Tf concentrations.
(a) BLI response curves for 1.0 µM of human Tf at 295 K in dilute cell culture media after Ru uptake experiments by HepG2 cells (Section 3.2 in the main text). Media (serum-free DMEM, containing 1.0 mg mL−1 BSA as a background protein, as well as KP1019 and/or Tf, as shown in the figure legend), were collected after the end of uptake experiments, then were diluted 30-fold with buffer (20 mM HEPES + 25 mM NaHCO3 + 140 mM NaCl, pH = 7.4) and applied to TfR1-loaded BLI probe. Designations of the steps in Tf cycle (A–D) correspond to those in Figure 1d-f, main text. Calculated KD values (1:1 binding model, BLItz software) were as […]

[3] = system: T2, recombinant human transferrin receptor 1 (TfR1); assay: BLI of Tf–TfR1 binding in dilute human serum pre-treated with metal complexes; conditions: serum incubated with 100 μM Ru complex or 60 μM Fe(III) as citrate
T2 construct: extracellular domain (Cyst89-Phe760), (His)6-tagged at the N-terminus; purchased Sino Biological, Beijing, China (TfR1); Sigma (human serum, Cat. No. H4522, as source of Tf) 11020-H07H
Procedure: as §1, with “concentrations. […]” for “concentrations.”
(b) BLI response curves for dilute human serum samples in the presence or absence of metal complexes. Intact commercial human serum (Sigma H4522) was incubated with Fe(III)-citrate (60 µM) or with Ru complexes (100 µM) for 4 h at 310 K, then diluted 200-fold (to [Tf] ~ 150 nM) with the binding buffer (20 mM HEPES, 25 mM NaHCO3, 140 mM NaCl, pH = 7.4), and analyzed with the TfR1-loaded BLI probe. Designations of the steps in Tf cycle (A–D) correspond to those in Figure 1d-f, main text. Calculated KD values (1:1 binding model, BLItz software) were as follows: 8.0 nM (serum + Fe(III) citrate); or 28 ± 2 nM (serum in the presence or absence of Ru complexes). Typical anticancer Ru complexes, NAMI-A, KP1019 and RAPTA-C, were synthesized and characterized previously in the Lay group.
(1 picture or pasted object on this page, not shown here)

HepG2 cells [4] = assay: Cellular Ru uptake by HepG2 cells (ICP-MS); type: cell-based, human; conditions: HepG2, 24 h; 60 μM Ru, added HSA or Tf 30 μM; serum-free DMEM with ~15 μM BSA; media pre-equilibrated 24 h except B1
Procedure: (§2) Human hepatoma (HepG2) cells were originally received from the American Type Culture Collection (ATCC, Cat. No. HB-8065) and cultured as described previously. This cell line was used for Tf-dependent metal uptake studies because of the high expression levels of human TfR1 [43]. For treatments, the cells were grown to confluence in 24-well plates, using Advanced DMEM (Dulbecco’s modified Eagle’s minimal essential medium, Invitrogen Cat. No. 12491-015), supplemented with L-glutamine (2.0 mM), antibiotic-antimycotic mixture (100 mg mL^−1 penicillin, 100 mg mL^−1 steptomycin and 0.25 mg mL^−1 amphotericin B) and fetal calf serum (heat-inactivated, 2% v/v). Confluent cell layers were washed with serum-free treatment medium (DMEM, Invitrogen Cat. No. 19938-025), supplemented with glutamine, antibiotic-antimycotic mixture and 1.0 mg mL^−1 AlbuMax (Gibco Cat. No. 11020-021). […] After washing, the wells were filled with the treatment medium containing metal additions (detailed in B1–B9 of Table 1). The treatment media were sterilized by filtration through 0.2 µm membrane filters, and pre-equilibrated for 24 h at 310 K and 5% CO2 prior to the addition to cells, except for sample B1 that was used immediately after preparation. All the treatments were performed in triplicate, using random well positions to avoid experimental bias.
(§3) After 24 h incubation with the treatment media (B1–B9 in Table 1), the medium from each well was collected for the determination of Ru–protein binding and BLI analyses, and the wells were washed twice with PBS (0.50 mL/well). […]
(§4) The values of metal uptake were normalized using protein content in cell lysates. For protein determination, Bradford reagent (Sigma Cat. No B6916; 98 µL) was mixed with a small aliquot (2.0 µL) of each cell lysate, and the absorbance at 600 nm was measured using a Victor V3 plate reader. […] The test and calibration samples were analyzed in triplicate. […]

HepG2 cells [5] = assay: Cellular Fe content of HepG2 cells (ICP-MS); type: cell-based, human; conditions: HepG2, 24 h; 60 μM Ru, added HSA or Tf 30 μM; serum-free DMEM with ~15 μM BSA
Procedure: as §2, §3, §4

[6] = system: protein in cell culture medium; assay: Ru–protein binding in cell culture medium (gel filtration, GFAAS); type: in vitro ADME; conditions: medium after 24 h cell treatment; gel filtration >6 kDa; 60 μM Ru, added HSA or Tf 30 μM, ~15 μM BSA
Procedure: An aliquot (50 µL) of cell culture medium from each well was passed through a separate Bio-Rad P6 centrifugal gel filtration column that was pre-saturated with PBS, according to manufacturer’s instructions. The eluants (50 ± 5 µL volume) contained protein-bound Ru fractions (>6 kDa molecular mass). The protein recovery, measured by Bradford assays, exceeded 95%. Another 50 µL sample of each medium was taken into separate tubes. Both the original and gel-filtered media samples were digested with 0.20 mL of 65% (v/v) HNO3 for 24 h. The digests were diluted with 0.75 mL of 0.10 M HCl, and the Ru content in the samples was determined by GFAAS. The percentage of protein binding was determined from the ratio of Ru content in the gel-filtered and original media samples [30, 31].

HepG2 cells [7] = assay: Toxicity to HepG2 cells judged from cell morphology during treatment; type: cell-based, human; conditions: HepG2, 24 h incubation, 60 μM Ru
Procedure: as §2, with “All the treatments were performed in triplicate, using random well positions to avoid experimental bias.” left out
Cellular Fe levels were also measured to control the Tf-mediated Fe uptake. […]

Row | Compound | Mean Particle Size [1] [nm] | Effect on Tf–TfR1 binding in whole human serum [3] | Fe Content (cellular metal content) (HepG2 cells [5]) | % Ru–Protein (proportion of protein-bound Ru in cell culture medium) [6] | also measured
1 | apoTf: human apo transferrin | 7 ± 1 |  |  |  | Kd [2]: 32 nM
2 | CS(C)=O.[Cl-].[Cl-].[Cl-].[Cl-].[Ru+3].c1c[nH+]c[nH]1.c1c[nH]cn1 [NAMI-A, (ImH)[Ru^IIICl4(Im)(S-dmso)]] |  | did not have any effect |  |  | 
3 | RuFeTf: apoTf + 1.0 eq. [Fe^III(nta)2]^3−, then 1.0 eq. [Ru^III(nta)2]^3−; mixed Ru(III)–Fe(III)–Tf adduct | 6.5 ± 1 |  |  |  | 
4 | Cc1ccc(C(C)C)cc1.[Cl][Ru]([Cl])[PH]12CN3CN(CN(C3)C1)C2 [RAPTA-C, [Ru^II(η^6-p-cymene)Cl2(pta)]] |  | did not have any effect |  |  | 
5 | Fe(III) citrate |  | significantly increased the binding affinity |  |  | 
6 | monoFeTf: apoTf + 1.0 eq. [Fe^III(nta)2]^3−; mixture of FeCTf and FeNTf forms | 7 ± 1 |  |  |  | 
7 | [Cl-].[Cl-].[Cl-].[Cl-].[Ru+3].c1ccc2[nH+][nH]cc2c1.c1ccc2[nH]ncc2c1.c1ccc2[nH]ncc2c1 [KP1019 fresh] |  |  | 11.2 ± 6.5 ^f nmol per mg protein | 46 ± 4 molar % | Ru Uptake (cellular metal content) (HepG2 cells [4]): 6.6 ± 2.8 ^e nmol per mg protein; Toxicity judged from cell morphology (HepG2 cells [7]): significant cell detachment
8 | Ru2Tf: apoTf + 2.0 eq. [Ru^III(nta)2]^3−; Ru(III) bound to Fe(III) sites of transferrin | 7 ± 1 |  | 1.9 ± 0.7 nmol per mg protein | 74 ± 3 ^g molar % | 
9 | O=C([O-])CN(CC(=O)[O-])CC(=O)[O-].O=C([O-])CN(CC(=O)[O-])CC(=O)[O-].[Ru+3] [[Ru(nta)2]^3−, [Ru^III(nta)2]^3−] |  |  | 1.4 ± 0.4 nmol per mg protein | 2 ± 1 ^g molar % | Ru Uptake (cellular metal content) (HepG2 cells [4]): 0.09 ± 0.03 nmol per mg protein
10 | Fe2Tf: fully Fe(III)-saturated human transferrin | 7 ± 2 |  |  |  | Kd [2]: 22 nM
